In paper PMC3465557, “Mixed antagonistic effects of the ginkgolides at recombinant human ρ1 GABAC receptors” (Neuropharmacology, 2012):

What was measured:
Assay type in all cases: cell-based
[1] = target: T1, recombinant human ρ1 GABAC receptors (Homo sapiens, UniProt P24046); assay: Fit of kinetic schemes 1-4 to equilibrium GABA concentration–response curves
T1 construct: expressed in transfected cells; host or cells: Xenopus laevis oocytes (cRNA injection)
From the text: The concentration–response curves were fitted with the different mechanisms of inhibition using a least squares non-linear regression in GraphPad Prism.
The mechanism used (Fig. 7, Scheme 1) is that of [Amin and Weiss (1996)], where there are five equivalent agonist binding sites and three sites need to be occupied to activate the receptor, leading to a single open state. […] This assumes five equivalent agonist binding sites but only three are required to be occupied to activate (open) the channel pore. All subsequent kinetic schemes are derivatives of the linear scheme, by incorporating different possible mechanisms for antagonism by ginkgolides. These are drawn from the cyclic mixed-antagonism mechanism described by [Smart and Constanti (1986)]. Scheme 2 and scheme 3 both assume that ginkgolide binds to a single site in the receptor complex. […] For scheme 4, the equilibrium between the fully-liganded closed and open states is removed, which allows for the possibility that the ginkgolide binds to a separate site in the closed state compared to the open state.
Initially, a cyclic allosteric mechanism (Fig. 7, scheme 2) similar to that of [Smart and Constanti (1986)] was fit to the data. This scheme assumes a single binding site on the receptor complex that has an allosteric effect on all rate constants in the reaction mechanism. The scheme was fitted to the data allowing the agonist equilibrium constant, Ka, to be related to the equilibrium constant in the presence of ginkgolide, Ka′ by a constant ratio, R = Ka/Ka′. Similarly, the opening equilibrium constants E and E′ were related by the ratio, S = E/E′. […] As a test of the mechanism, the parameters obtained from the fit were used to predict the inhibition curves (Fig. 8D–F).
This effectively means that ginkgolide is binding at two separate sites. […] Scheme 4 is therefore functionally similar to scheme 2 with E′ having a value close to zero.

[2] = target: T1, recombinant human ρ1 GABAC receptors; assay: Use-dependence: repeated co-applications with GABA during extended incubation of ginkgolide; conditions: for use-dependence: repeated co-applications
Method: (§1) Whole-cell currents from homomeric ρ1 GABAC receptors expressed in oocytes were recorded using two-electrode voltage clamp. Recording microelectrodes were fabricated with a micropipette puller (Narishige Scientific Instrument Lab, Tokyo, Japan) and filled with 3 M KCl solution. Oocytes were clamped at −60 mV and continuously superfused with ND96 buffer. […] […]. Co-applications of ginkgolides were interleaved with test applications of GABA alone to monitor the response throughout the experiment. […] A washout period of 3–5 min was allowed between each application.
Fig. 5 Use-dependent effect in the antagonism of ρ1 GABAC receptors by ginkgolides. A. Examples of currents recorded during repeated co-applications of GABA and ginkgolides. […] Each application was separated by a 3-min interval. […]. […] Overall, there was no obvious evidence for use-dependent inhibition by the ginkgolides.

[3] = target: T1, recombinant human ρ1 GABAC receptors; assay: GABA concentration–response curves in the presence and absence of ginkgolides, two-electrode voltage clamp in Xenopus oocytes; conditions: for type of antagonism: from GABA concentration–response and inhibition curves
Method: (§2) Human ρ1 GABAC receptor subunit cDNA was linearized using the restriction enzyme Xba 1 and transcribed using the “mMESSAGE mMACHINE” kit (Ambion Inc., Austin, TX, USA). RNA (10 ng/50 nl) was injected into the cytoplasm of defollicated oocytes using a 15–20 μm diameter tip glass micropipette Nanoject injector (Drummond Scientific Co., Broomali, PA, USA). The oocytes were incubated for 2–7 days at 18 °C in ND96 buffer with a twice-daily change of buffer.
as §1
(§3) Analysis and curve fitting was performed using GraphPad Prism v3.02 (GraphPad Software, San Diego, California, USA). […] […]. […] Unless otherwise noted, parameters were calculated from individual oocytes and then averaged.

[4] = target: T1, recombinant human ρ1 GABAC receptors; assay: Inhibition and recovery time when ginkgolide is co-applied during the plateau of the GABA-activated current
Method: as §1
The recovery time from inhibition (measured as the 10–90% rise interval) was determined from the current responses obtained when ginkgolides A, B and C were co-applied during the plateau of the GABA-activated current (Fig. 6). […].
Fig. 6 Recovery time from ginkgolide inhibition.

[5] = target: T1, recombinant human ρ1 GABAC receptors; assay: Inhibition curves: ginkgolides co-applied with a fixed GABA concentration, two-electrode voltage clamp in Xenopus oocytes
Method: as §2, §1, §3

[6] = Hill coefficient of GABA curve with 10 μM antagonist
[7] = Hill coefficient of GABA curve with 30 μM antagonist
[8] = Hill coefficient of GABA curve with 100 μM antagonist
[9] = in the presence of 10 μM ginkgolide
[10] = in the presence of 30 μM ginkgolide
[11] = in the presence of 100 μM ginkgolide

T1 sequence (P24046 22-479): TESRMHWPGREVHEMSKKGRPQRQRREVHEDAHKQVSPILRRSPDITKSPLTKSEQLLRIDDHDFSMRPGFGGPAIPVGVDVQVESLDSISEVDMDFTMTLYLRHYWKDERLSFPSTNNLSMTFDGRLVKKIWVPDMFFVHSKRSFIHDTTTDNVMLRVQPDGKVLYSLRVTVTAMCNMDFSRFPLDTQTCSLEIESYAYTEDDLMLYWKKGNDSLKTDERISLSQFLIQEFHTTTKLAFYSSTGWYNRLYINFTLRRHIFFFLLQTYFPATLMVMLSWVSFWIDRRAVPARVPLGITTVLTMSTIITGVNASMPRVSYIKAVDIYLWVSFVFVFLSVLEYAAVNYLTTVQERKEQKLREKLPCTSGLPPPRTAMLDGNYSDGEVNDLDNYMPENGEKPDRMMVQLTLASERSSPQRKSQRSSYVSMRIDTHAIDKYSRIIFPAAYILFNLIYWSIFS

## ginkgolide B
[1]; Scheme 2, calculated
  E′ (opening equilibrium constant with ginkgolide bound): 1.3
  Ka′ (agonist equilibrium constant with ginkgolide bound): 8.3 µM
[1]; Scheme 2, fitted
  R (= Ka/Ka′): 0.39 ± 0.02
  S (= E/E′): 8.6 ± 0.6
[1]; Scheme 3, calculated
  E′ (opening equilibrium constant with ginkgolide bound): 1 × 10^−9
  Ka′ (agonist equilibrium constant with ginkgolide bound): 12.9 µM
[1]; Scheme 3, fitted
  R (= Ka/Ka′): 0.25 ± 0.01
  S (= E/E′): 1.0 × 10^10 ± 1.4 × 10^16
[1]; Scheme 4, calculated
  Ka′ (agonist equilibrium constant with ginkgolide bound): 8.3 µM
[1]; Scheme 4, fitted
  R (= Ka/Ka′): 0.39 ± 0.02
[2]; 5 μM ginkgolide, 1 μM GABA, five co-applications after 40 s preincubation
  level of inhibition: 61.3 ± 1.7%
[2]; 5 μM ginkgolide, 1 μM GABA
  use-dependence: not obviously use-dependent
[3]; [6]
  GABA + Ant nH: 1.97 ± 0.10
[3]; [7]
  GABA + Ant nH: 1.83 ± 0.06
[3]; [8]
  GABA + Ant nH: 1.61 ± 0.05
[3]
  type of antagonism: mixed antagonists
[3]; [9]
  fold increase in the GABA EC50: 3.2 fold
[3]; [10]
  fold increase in the GABA EC50: 4.7 fold
[3]; [11]
  fold increase in the GABA EC50: 7.5 fold
[3]; with 10 μM antagonist
  Max. GABA response: 80.65 ± 2.18 %
[3]; with 30 μM antagonist
  Max. GABA response: 75.12 ± 1.39 %
[3]; with 100 μM antagonist
  Max. GABA response: 69.56 ± 2.48 %
[4]; 1 μM GABA, 5 μM ginkgolide
  Inhibition (%): 55.5 ± 3.4%
  Recovery time (10–90% rise interval): 42.8 ± 8.6 s
[4]; 3 μM GABA, 5 μM ginkgolide
  Inhibition (%): 35.2 ± 6.8%
  Recovery time (10–90% rise interval): 21.3 ± 4.4 s
[4]; 3 μM GABA, 50 μM ginkgolide
  Inhibition (%): 54.6 ± 7.5%
  Recovery time (10–90% rise interval): 29.4 ± 3.8 s
[5]; 0.5 μM GABA
  fold more potent than ginkgolide A: approximately 7.7 fold
  fold more potent than ginkgolide C: ~1.1 fold
  nH of inhibition curve: −0.87 ± 0.05
[5]; 1.2 μM GABA
  fold more potent than ginkgolide A: ~18 fold
  fold more potent than ginkgolide C: ~2.3 fold
  nH of inhibition curve: −0.97 ± 0.07
[5]; 3 μM GABA
  fold more potent than ginkgolide A: ~32 fold
  fold more potent than ginkgolide C: ~3.8 fold
[5]; 3.0 μM GABA
  nH of inhibition curve: −0.78 ± 0.06
[5]; 10 μM GABA
  fold more potent than ginkgolide A: ~6.7 fold
  fold more potent than ginkgolide C: ~4 fold
  nH of inhibition curve: −0.83 ± 0.06
[5]; 10 μM GABA, five out of seven oocytes, up to 3 mM
  bottom plateau of the inhibition curve: approximately 30 % of Imax

## C[C@@H]1C(=O)O[C@H]2C[C@@]34[C@H]5C[C@@H](C(C)(C)C)[C@]36[C@@H](OC(=O)[C@@H]6O)O[C@@]4(C(=O)O5)[C@]21O [Ginkgolide A, ginkgolide A]
[1]; Kb0, Scheme 2, calculated
  Kd: 1.3 µM
[1]; Kb0, Scheme 3, calculated
  Kd: 1.5 µM
[1]; Kb0, Scheme 4, calculated
  Kd: 1.3 µM
[1]; Kb3, Scheme 2, calculated
  Kd: 7.7 µM
[1]; Kb3, Scheme 3, calculated
  Kd: 6790 µM
[1]; Kb3, Scheme 4, printed with ±SE
  Kd: 7.7 ± 1.4 µM
[1]; Kb4 (equilibrium constant of ginkgolide, open state), Scheme 2, fitted, Ka fixed 3.2 μM, E fixed 11
  Kd: 19.7 ± 3.9 µM
[1]; Kb4 (equilibrium constant of ginkgolide, open state), Scheme 3, fitted, Ka fixed 3.2 μM, E fixed 11
  Kd: 611 ± 89 µM
[1]; Kb4 (equilibrium constant of ginkgolide, open state), Scheme 4, fitted, Ka fixed 3.2 μM, E fixed 11
  Kd: 19.7 ± 3.9 µM
[1]; Scheme 2, calculated
  E′ (opening equilibrium constant with ginkgolide bound): 4.3
  Ka′ (agonist equilibrium constant with ginkgolide bound): 5.7 µM
[1]; Scheme 2, fitted
  R (= Ka/Ka′): 0.56 ± 0.03
  S (= E/E′): 2.6 ± 0.2
[1]; Scheme 3, calculated
  E′ (opening equilibrium constant with ginkgolide bound): 122
  Ka′ (agonist equilibrium constant with ginkgolide bound): 53.3 µM
[1]; Scheme 3, fitted
  R (= Ka/Ka′): 0.06 ± 0.05
  S (= E/E′): 0.09 ± 0.22
[1]; Scheme 4, calculated
  Ka′ (agonist equilibrium constant with ginkgolide bound): 5.7 µM
[1]; Scheme 4, fitted
  R (= Ka/Ka′): 0.55 ± 0.03
[2]; 5 μM ginkgolide, 1 μM GABA
  use-dependence: not obviously use-dependent
[2]; read-out: level of inhibition
  inhibition at 5 µM: 33.2 ± 1.4%
[3]; [6]
  GABA + Ant nH: 1.98 ± 0.12
[3]; [7]
  GABA + Ant nH: 2.25 ± 0.04
[3]; [8]
  GABA + Ant nH: 2.60 ± 0.22
[3]
  type of antagonism: mixed antagonists
[3]; [9]
  fold increase in the GABA EC50: 1.9 fold
[3]; [10]
  fold increase in the GABA EC50: 2.3 fold
[3]; [11]
  fold increase in the GABA EC50: 2.5 fold
[3]; with 10 μM antagonist
  Max. GABA response: 94.78 ± 0.54 %
[3]; with 30 μM antagonist
  Max. GABA response: 91.44 ± 0.80 %
[3]; with 100 μM antagonist
  Max. GABA response: 85.66 ± 1.34 %
[4]; 1 μM GABA, 5 μM ginkgolide
  Recovery time (10–90% rise interval): 48.4 ± 5.7 s
  inhibition at 5 µM: 33.8 ± 3.4%
[4]; 3 μM GABA, 5 μM ginkgolide
  Recovery time (10–90% rise interval): 14.3 ± 4.6 s
  inhibition at 5 µM: 15.9 ± 1.6%
[4]; 3 μM GABA, 50 μM ginkgolide
  Recovery time (10–90% rise interval): 18.4 ± 3.4 s
  inhibition at 50 µM: 21.4 ± 1.9%
[5]; 0.5 μM GABA
  nH of inhibition curve: −0.99 ± 0.08
[5]; 1.2 μM GABA
  nH of inhibition curve: −0.82 ± 0.07
[5]; 3.0 μM GABA
  nH of inhibition curve: −0.61 ± 0.03
[5]; 10 μM GABA
  nH of inhibition curve: −0.73 ± 0.04
[5]; IC50, 0.5 μM GABA
  IC50: 5.74 ± 0.17 µM
[5]; IC50, 1.2 μM GABA
  IC50: 42.3 ± 5.76 µM
[5]; IC50, 3.0 μM GABA
  IC50: 182 ± 12.6 µM
[5]; IC50, 10 μM GABA
  IC50: 874 ± 108 µM
